According to PubChem BioAssay (NCI):
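Five compound concentrations were applied to cells in 96-well plates for 48 hours; endpoints were derived by simple linear interpolation of the resulting dose-response curve. The concentration for 50% growth inhibition is given as GI50. TGI is the concentration that stops growth completely.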

What was measured:
Assay in all cases: inhibition of tumour cell growth, NCI panel, 48 h
786-0 renal = test system: 786-0 renal
A498 renal = test system: A498 renal
BT-549 breast = test system: BT-549 breast
EKVX NSCLC = test system: EKVX NSCLC
HT29 colon = test system: HT29 colon
K-562 leukemia = test system: K-562 leukemia
MALME-3M melanoma = test system: MALME-3M melanoma
SF-295 CNS = test system: SF-295 CNS
SF-539 CNS = test system: SF-539 CNS
T-47D breast = test system: T-47D breast

SMILES	TGI (786-0 renal)	TGI (A498 renal)	TGI (BT-549 breast)	TGI (EKVX NSCLC)	TGI (HT29 colon)	TGI (K-562 leukemia)	TGI (MALME-3M melanoma)	TGI (SF-295 CNS)	TGI (SF-539 CNS)	TGI (T-47D breast)	GI50 (A498 renal)	GI50 (BT-549 breast)	GI50 (EKVX NSCLC)	GI50 (HT29 colon)	GI50 (K-562 leukemia)	GI50 (MALME-3M melanoma)	GI50 (SF-295 CNS)	GI50 (SF-539 CNS)	GI50 (T-47D breast)
Cc1c2ncccc2cc2oc3ccccc3c(=O)c12	> 100 µM	> 100 µM	> 100 µM	> 100 µM	> 100 µM	> 100 µM	> 100 µM	> 100 µM	> 100 µM	61.7 µM	–	–	–	–	–	–	–	–	–
CCOc1cc(-c2nc3ccccn3c2/N=C/c2cc(Br)ccc2O)ccc1O	60.4 µM	90.5 µM	> 100 µM	76.6 µM	> 100 µM	> 100 µM	> 100 µM	> 100 µM	> 100 µM	22.4 µM	–	–	–	–	–	–	–	–	–
CC1(C)CNC(=O)C2(C=NC(C)(C)CNC(=O)C3(C=N1)CCCO3)CCCO2 (stereo not given)	> 10 µM	> 10 µM	> 10 µM	> 10 µM	> 10 µM	> 10 µM	> 10 µM	> 10 µM	> 10 µM	> 10 µM	–	–	–	–	–	–	–	–	–
Cc1nc(C)c(Cc2ccccc2)o1	> 100 µM	> 100 µM	> 100 µM	> 100 µM	> 100 µM	> 100 µM	> 100 µM	> 100 µM	> 100 µM	> 100 µM	–	–	–	–	–	–	–	–	–
Cc1nn(-c2cc(Cl)ccc2[N+](=O)[O-])c(C)c1Cl	> 100 µM	> 100 µM	> 100 µM	> 100 µM	> 100 µM	> 100 µM	> 100 µM	> 100 µM	> 100 µM	> 100 µM	–	–	–	–	–	–	–	–	–
N#Cc1cc2c(cc1Cl)Sc1nccn1S2(=O)=O	28.8 µM	33 µM	13 µM	35.9 µM	3.91 µM	17.2 µM	22.2 µM	12.2 µM	12.2 µM	8.57 µM	–	–	–	–	–	–	–	–	–
CCOn1c(C2(CC3CCN(C(=O)c4ccccc4)CC3)OCCO2)cc2ccccc21	30 µM	26.1 µM	34.5 µM	40.1 µM	34.2 µM	38.2 µM	33.2 µM	30.5 µM	68.1 µM	56.2 µM	–	–	–	–	–	–	–	–	–
CCOC(=O)C(NC(=O)CC(C)C)(N1CCN(c2cc3c(cc2F)c(=O)c(C(=O)O)cn3C2CC2)CC1)C(F)(F)F (stereo not given)	> 100 µM	16.8 µM	39.1 µM	92.8 µM	91.6 µM	42 µM	31.7 µM	61.5 µM	34.7 µM	86.7 µM	–	–	–	–	–	–	–	–	–
C=c1c(OC)c(OC)c(O)c2c1=c1cc([N+](=O)[O-])cc(OC)c1=N2	> 100 µM	> 100 µM	> 100 µM	> 100 µM	> 100 µM	> 100 µM	> 100 µM	> 100 µM	> 100 µM	> 100 µM	–	–	–	–	–	–	–	–	–
CC1CC(=O)Nc2nc3ccccc3n21 (stereo not given)	> 100 µM	> 100 µM	> 100 µM	> 100 µM	> 100 µM	> 100 µM	> 100 µM	> 100 µM	> 100 µM	> 100 µM	–	–	–	–	–	–	–	–	–
CC1(CNCc2ccccc2)CC(CCc2ccccc2)N(C(=O)c2ccc([N+](=O)[O-])cc2)C1Cc1ccc(O)cc1 (stereo not given)	25.9 µM	26.7 µM	31.3 µM	31 µM	22 µM	> 100 µM	33.6 µM	25.6 µM	35.2 µM	18.8 µM	–	–	–	–	–	–	–	–	–
COc1cc(I)c2c3c1OC1C34CCN(C)C(C2)C4=CC(I)C1(OC)OC (stereo not given)	43.7 µM	86.4 µM	48.4 µM	> 100 µM	83.6 µM	61.8 µM	47.1 µM	> 100 µM	40.1 µM	31.1 µM	–	–	–	–	–	–	–	–	–
COc1ccc2c(c1)CC1=C(O2)c2ccc(OC)cc2OC1	50.8 µM	> 100 µM	38.8 µM	52.5 µM	72.9 µM	> 100 µM	45.5 µM	> 100 µM	85.1 µM	37.5 µM	–	–	–	–	–	–	–	–	–
COCc1nc2c(OC)cc(-c3nc4ccc(N5CCN(C)CC5)cc4[nH]3)c(OC)c2[nH]1	> 100 µM	> 100 µM	> 100 µM	> 100 µM	> 100 µM	> 100 µM	31.6 µM	47.2 µM	44.6 µM	> 100 µM	–	–	–	–	–	–	–	–	–
Brc1ccc2c(-c3csc(-c4c[nH]c5cc(Br)ccc45)n3)c[nH]c2c1	> 67.3 µM	> 83.5 µM	> 100 µM	> 100 µM	29.2 µM	> 43.8 µM	> 100 µM	45.5 µM	63.2 µM	98.7 µM	–	–	–	–	–	–	–	–	–
CC(=O)OC/C=C(/C=C/CNC1CCCCC1)OC(C)=O	23.9 µM	33.9 µM	31.3 µM	30.1 µM	35.5 µM	32 µM	32.9 µM	33.2 µM	24.2 µM	36.7 µM	–	–	–	–	–	–	–	–	–
CCCCc1ccc(Nc2nc3c(ncn3COCCO)c(=O)[nH]2)cc1	> 100 µM	> 100 µM	> 100 µM	> 100 µM	> 100 µM	> 100 µM	> 100 µM	> 100 µM	> 100 µM	> 100 µM	–	–	–	–	–	–	–	–	–
O=C(Nc1ccccc1C(=O)NCCCO)/C(=C/c1ccccc1O)NC(=O)c1ccccc1	> 89.9 µM	> 100 µM	55.7 µM	> 100 µM	> 100 µM	> 100 µM	> 100 µM	> 75.8 µM	> 63.2 µM	> 100 µM	–	–	–	–	–	–	–	–	–

SMILES	TGI (786-0 renal)	TGI (A498 renal)	TGI (BT-549 breast)	TGI (EKVX NSCLC)	TGI (HT29 colon)	TGI (K-562 leukemia)	TGI (MALME-3M melanoma)	TGI (SF-295 CNS)	TGI (SF-539 CNS)	TGI (T-47D breast)	GI50 (A498 renal)	GI50 (BT-549 breast)	GI50 (EKVX NSCLC)	GI50 (HT29 colon)	GI50 (K-562 leukemia)	GI50 (MALME-3M melanoma)	GI50 (SF-295 CNS)	GI50 (SF-539 CNS)	GI50 (T-47D breast)
Clc1ccc(OCc2nnc(CCCCCCCCc3nnc(COc4ccc(Cl)cc4)n3Nc3ccccc3)n2Nc2ccccc2)cc1	58 µM	> 100 µM	97.5 µM	> 87.9 µM	34.3 µM	> 100 µM	> 65.6 µM	> 100 µM	40.1 µM	> 100 µM	–	–	–	–	–	–	–	–	–
Cn1c([O-])nc(-n2cc[n+](C)c2)cc1=O	> 100 µM	> 100 µM	> 100 µM	> 100 µM	> 100 µM	> 100 µM	> 100 µM	–	> 100 µM	> 100 µM	–	–	–	–	–	–	–	–	–
Cc1cn([C@@H]2C[C@H]2CO)c(=O)[nH]c1=O	> 100 µM	> 100 µM	> 100 µM	> 100 µM	> 100 µM	> 100 µM	> 100 µM	–	> 100 µM	> 100 µM	–	–	–	–	–	–	–	–	–
CC1(C(=O)O)CCCC1C(=O)O (stereo not given)	> 100 µM	> 100 µM	> 100 µM	> 100 µM	> 100 µM	> 100 µM	> 100 µM	> 100 µM	–	> 100 µM	–	–	–	–	–	–	–	–	–
Brc1ccc2c(-c3csc(-c4c[nH]c5ccc(Br)cc45)n3)c[nH]c2c1	4.71 µM	8.42 µM	27.7 µM	7.15 µM	3.35 µM	> 22.2 µM	19.3 µM	10.9 µM	15.1 µM	21.3 µM	–	–	–	–	–	–	–	–	–
C=C1CC(C)(c2ccc(Nc3nc4ccccc4c4occc34)cc2)OC1=O (stereo not given)	3.79 µM	33.8 µM	7.02 µM	24.5 µM	12.6 µM	> 100 µM	43.4 µM	27.4 µM	4.5 µM	6.85 µM	–	–	–	–	–	–	–	–	–
NC(N)=NS(=O)(=O)c1ccc(NC(=O)c2ccc3nc4ccccc4c(Nc4ccc(S(=O)(=O)N=C(N)N)cc4)c3c2)cc1	> 100 µM	> 100 µM	> 100 µM	> 100 µM	> 100 µM	> 100 µM	> 100 µM	> 100 µM	> 100 µM	> 100 µM	–	–	–	–	–	–	–	–	–
CC1S/C(=N/c2nnc(-c3ccccc3)o2)NC1=O (stereo not given)	85.4 µM	> 100 µM	> 100 µM	85.2 µM	69.8 µM	> 100 µM	> 100 µM	> 100 µM	> 100 µM	> 100 µM	–	–	–	–	–	–	–	–	–
N#Cc1c(-c2ccc(F)cc2)nc(N/N=C/c2c[nH]c3ccccc23)nc1N1CCOCC1	–	11.5 µM	30.9 µM	86.9 µM	22.6 µM	14.2 µM	4.76 µM	4.29 µM	23 µM	40 µM	1.33 µM	5.43 µM	5.44 µM	1.11 µM	1.79 µM	2.75 µM	1.89 µM	3.68 µM	9.16 µM
c1ccc2c3c(c(N4CCOCC4)nc2c1)CCCC3	92.9 µM	81.6 µM	> 100 µM	63.8 µM	> 100 µM	> 100 µM	> 100 µM	> 100 µM	61.4 µM	72.8 µM	–	–	–	–	–	–	–	–	–
Cc1cc2[nH]c3c(C#N)c4c(c(=O)n3c2cc1C)CCCC4	> 100 µM	> 100 µM	> 100 µM	> 100 µM	> 100 µM	> 100 µM	> 100 µM	29.5 µM	> 100 µM	> 100 µM	–	–	–	–	–	–	–	–	–
CN(C)S(=O)(=O)Nc1nnc(S(N)(=O)=O)s1	> 100 µM	> 100 µM	> 100 µM	> 100 µM	> 100 µM	> 100 µM	> 100 µM	> 100 µM	> 100 µM	> 100 µM	–	–	–	–	–	–	–	–	–
COc1cc(CN2CCCCC2)cc2cc(C(=O)O)c(=O)oc12	> 100 µM	> 100 µM	> 100 µM	> 100 µM	> 100 µM	> 100 µM	> 100 µM	> 100 µM	> 100 µM	> 100 µM	–	–	–	–	–	–	–	–	–
CC(C)(C)c1cc(/C=C(\C#N)C(=O)NCCO)cc(C(C)(C)C)c1O	48.3 µM	48.4 µM	71.1 µM	70.4 µM	51.7 µM	86.7 µM	61.9 µM	40.8 µM	38.3 µM	76.8 µM	–	–	–	–	–	–	–	–	–
CC1(C)C=C(S(=O)(=O)c2ccccc2)Oc2ccccc2O1	> 100 µM	> 100 µM	> 100 µM	73.4 µM	> 100 µM	> 100 µM	75.2 µM	> 100 µM	> 100 µM	96.4 µM	–	–	–	–	–	–	–	–	–
C=C1C(=O)O[C@@]23C1CC[C@@H](C)C2CC[C@@]1(C)OC31 (stereo not given in full)	26.6 µM	59.1 µM	23.7 µM	30.5 µM	25.6 µM	66.1 µM	7.59 µM	48.9 µM	12.2 µM	19.2 µM	–	–	–	–	–	–	–	–	–
O=C1CSC(c2cccs2)N1c1nc2cc3sc(N4C(=O)CSC4c4cccs4)nc3cc2s1 (stereo not given)	> 50 µM	> 50 µM	> 50 µM	> 50 µM	> 50 µM	> 50 µM	> 50 µM	> 50 µM	3.6 µM	> 50 µM	–	–	–	–	–	–	–	–	–
